Experimental data: patent US12319672B2, “Alpha-D-galactopyranoside derivatives” (Idorsia Pharmaceuticals Ltd, priority 2019, dated 2025)
pIC50: −log10 of the molar value.

Key:
human Gal-3 (hGal-3) = human Gal-3 (hGal-3) (Homo sapiens (Human), UniProt P17931); test: Competitive binding assay: binding of biotinylated hGal-3 to microplate-adsorbed asialofetuin (ASF); settings: Activity on hGal-3; mean values of several measurements
How it was run: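 Biotinylated hGal-3 (300-1000 ng/mL) bound to ASF-coated wells with serially diluted compound, 3 h at 4° C. After washing, bound protein was detected with streptavidin-peroxidase (80 ng/mL, 1 h, 4° C) and ABTS substrate; IC50 values are means of several measurements.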

human Gal-1 (hGal-1) = test: Competitive binding assay: binding of biotinylated hGal-1 to microplate-adsorbed asialofetuin (ASF); settings: Activities on hGal-1; mean values of several measurements
Chain of human Gal-1 (hGal-1) (P09382 2-135 limits assumed): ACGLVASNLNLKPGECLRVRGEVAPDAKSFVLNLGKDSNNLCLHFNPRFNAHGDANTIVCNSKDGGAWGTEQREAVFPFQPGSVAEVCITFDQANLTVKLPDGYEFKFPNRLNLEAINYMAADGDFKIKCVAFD
How it was run: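 Compounds diluted in DMSO competed with biotinylated hGal-3 or hGal-1 (300-1000 ng/mL) for binding to plate-adsorbed asialofetuin for 3 h at 4° C. Bound galectin was detected with streptavidin-peroxidase (80 ng/mL, 1 h, 4° C) and ABTS substrate; IC50 reported as mean of several measurements.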

Chain of human Gal-3 (hGal-3) (P17931 whole entry): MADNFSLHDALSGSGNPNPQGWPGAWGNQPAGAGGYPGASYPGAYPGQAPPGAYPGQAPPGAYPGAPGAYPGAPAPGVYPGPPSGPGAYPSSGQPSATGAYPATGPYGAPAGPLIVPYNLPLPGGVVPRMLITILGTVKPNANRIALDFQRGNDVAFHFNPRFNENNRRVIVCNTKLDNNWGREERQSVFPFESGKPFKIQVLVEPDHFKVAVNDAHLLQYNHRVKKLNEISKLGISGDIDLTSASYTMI

CO[C@@H]1[C@@H](n2cc(-c3ccc(C)c(F)c3F)nn2)[C@@H](O)[C@@H](CO)O[C@@H]1Cc1cn(C(C)(C)C)nn1 [Example 4.52, (2R,3R,4S,5R,6R)-6-((1-(tert-butyl)-1H-1,2,3-triazol-4-yl)methyl)-4-(4-(2,3-difluoro-4-methylphenyl)-1H-1,2,3-triazol-1-yl)-2-(hydroxymethyl)-5-methoxytetrahydro-2H-pyran-3-ol]
pIC50 (human Gal-3 (hGal-3)): 7.28 | pIC50 (human Gal-1 (hGal-1)): 6.14

CO[C@@H]1[C@@H](n2cc(-c3ccc(Br)c(F)c3F)nn2)[C@@H](O)[C@@H](CO)O[C@@H]1CC1CC(C2CCNCC2)=NO1 (some centres unmarked) [Ex 1.142]
pIC50 (human Gal-3 (hGal-3)): 7.15 | pIC50 (human Gal-1 (hGal-1)): 5.88

OC[C@H]1O[C@H](CC2CC(C3CCNCC3)=NO2)[C@H](O)[C@@H](n2cc(-c3cc(F)c(F)c(F)c3)nn2)[C@H]1O (mixture of isomers) [Example 3.01, (2R,3R,4R,5R,6R)-2-(hydroxymethyl)-6-(((RS)-3-(piperidin-4-yl)-4,5-dihydroisoxazol-5-yl)methyl)-4-(4-(3,4,5-trifluorophenyl)-1H-1,2,3-triazol-1-yl)tetrahydro-2H-pyran-3,5-diol]
pIC50 (human Gal-3 (hGal-3)): 6.52 | pIC50 (human Gal-1 (hGal-1)): 5.24

CO[C@@H]1[C@@H](n2cc(-c3cc(F)c(F)c(F)c3)nn2)[C@@H](O)[C@@H](CO)O[C@@H]1Cc1cc(C2CCC(F)(F)CC2)sn1 [Example 6.01, (2R,3R,4S,5R,6R)-6-((5-(4,4-difluorocyclohexyl)isothiazol-3-yl)methyl)-2-(hydroxymethyl)-5-methoxy-4-(4-(3,4,5-trifluorophenyl)-1H-1,2,3-triazol-1-yl)tetrahydro-2H-pyran-3-ol]
pIC50 (human Gal-3 (hGal-3)): 6.25 | pIC50 (human Gal-1 (hGal-1)): 5.20

Cc1ccc(-c2cn([C@H]3[C@@H](O)[C@@H](CO)O[C@H](Cc4cc(C(C)(C)C)no4)[C@@H]3OCc3nccs3)nn2)c(F)c1F [Example 2.53, (2R,3R,4S,5R,6R)-6-((3-(tert-butyl)isoxazol-5-yl)methyl)-4-(4-(2,3-difluoro-4-methylphenyl)-1H-1,2,3-triazol-1-yl)-2-(hydroxymethyl)-5-(thiazol-2-ylmethoxy)tetrahydro-2H-pyran-3-ol]
pIC50 (human Gal-3 (hGal-3)): 7.28 | pIC50 (human Gal-1 (hGal-1)): 5.98

CO[C@@H]1[C@@H](n2cc(-c3ccc(C)c(F)c3F)nn2)[C@@H](O)[C@@H](CO)O[C@@H]1Cc1cc(C(C)(O)c2ccccc2F)on1 (some centres unmarked) [Ex 1.321]
pIC50 (human Gal-3 (hGal-3)): 6.40 | pIC50 (human Gal-1 (hGal-1)): 5.04

CO[C@@H]1[C@@H](n2cc(-c3cc(F)c(F)c(F)c3)nn2)[C@@H](O)[C@@H](CO)O[C@@H]1CC1CC(C2CCCCC2)=NO1 (some centres unmarked) [Ex 1.08]
pIC50 (human Gal-3 (hGal-3)): 5.97 | pIC50 (human Gal-1 (hGal-1)): 5.06

COc1ccc(N2CC(C[C@H]3O[C@H](CO)[C@H](O)[C@H](n4cc(-c5cc(F)c(F)c(F)c5)nn4)[C@H]3OC)OC2=O)cc1 (mixture of isomers) [Example 5.01, (RS)-5-(((2R,3R,4S,5R,6R)-5-hydroxy-6-(hydroxymethyl)-3-methoxy-4-(4-(3,4,5-trifluorophenyl)-1H-1,2,3-triazol-1-yl)tetrahydro-2H-pyran-2-yl)methyl)-3-(4-methoxyphenyl)oxazolidin-2-one]
pIC50 (human Gal-3 (hGal-3)): 5.80 | pIC50 (human Gal-1 (hGal-1)): 5.28

CC(C)(C)OC(=O)N1CCC(C2=NOC(C[C@H]3O[C@H](CO)[C@H](O)[C@H](n4cc(-c5ccc(Cl)c(Cl)c5)nn4)[C@H]3O)C2)CC1 (some centres unmarked) [Ex 1.107]
pIC50 (human Gal-3 (hGal-3)): 6.96 | pIC50 (human Gal-1 (hGal-1)): 6.40

CC(C)(C)OC(=O)N1CCC(C2=NOC(C[C@H]3O[C@H](CO)[C@H](O)[C@H](n4cc(-c5ccc(Cl)c(F)c5F)nn4)[C@H]3O)C2)CC1 (some centres unmarked) [Ex 1.102]
pIC50 (human Gal-3 (hGal-3)): 7.09 | pIC50 (human Gal-1 (hGal-1)): 5.63

CO[C@@H]1[C@@H](n2cc(-c3ccc(C)c(F)c3F)nn2)[C@@H](O)[C@@H](CO)O[C@@H]1Cc1cc(C2(C)COC2)on1 [Ex 1.320]
pIC50 (human Gal-3 (hGal-3)): 7.12 | pIC50 (human Gal-1 (hGal-1)): 5.58

(2R,3R,4S,5R,6R)-4-(4-(2,3-difluoro-4-methylphenyl)-1H-1,2,3-triazol-1-yl)-6-((3-(1-hydroxycyclobutyl)isoxazol-5-yl)methyl)-2-(hydroxymethyl)-5-methoxytetrahydro-2H-pyran-3-ol [Example 2.57]
pIC50 (human Gal-3 (hGal-3)): 7.09 | pIC50 (human Gal-1 (hGal-1)): 5.84

O=c1cc(C2=NO[C@@H](C[C@H]3O[C@H](CO)[C@H](O)[C@H](n4cc(-c5cc(F)c(F)c(F)c5)nn4)[C@H]3O)C2)cc[nH]1 [Example 2.04, 4-((R)-5-(((2R,3R,4R,5R,6R)-3,5-dihydroxy-6-(hydroxymethyl)-4-(4-(3,4,5-trifluorophenyl)-1H-1,2,3-triazol-1-yl)tetrahydro-2H-pyran-2-yl)methyl)-4,5-dihydroisoxazol-3-yl)pyridin-2(1H)-one]
pIC50 (human Gal-3 (hGal-3)): 6.04 | pIC50 (human Gal-1 (hGal-1)): 4.91

CO[C@@H]1[C@@H](n2cc(-c3cc(F)c(F)c(F)c3)nn2)[C@@H](O)[C@@H](CO)O[C@@H]1Cc1cc(C2CCNCC2)on1 [Example 3.16, (2R,3R,4S,5R,6R)-2-(hydroxymethyl)-5-methoxy-6-((5-(piperidin-4-yl)isoxazol-3-yl)methyl)-4-(4-(3,4,5-trifluorophenyl)-1H-1,2,3-triazol-1-yl)tetrahydro-2H-pyran-3-ol]
pIC50 (human Gal-3 (hGal-3)): 6.66 | pIC50 (human Gal-1 (hGal-1)): 5.28

CC(=O)O[C@@H]1[C@@H](n2cc(-c3ccc(C)c(F)c3F)nn2)[C@@H](O)[C@@H](CO)O[C@@H]1Cc1cc(C(C)(C)C)on1 [Ex 1.204]
pIC50 (human Gal-3 (hGal-3)): 7.39 | pIC50 (human Gal-1 (hGal-1)): 4.76

CO[C@@H]1[C@@H](n2cc(-c3ccc(C)c(F)c3F)nn2)[C@@H](O)[C@@H](CO)O[C@@H]1Cc1cc(C(C)(C)CN)no1 [Ex 1.336]
pIC50 (human Gal-3 (hGal-3)): 7.64 | pIC50 (human Gal-1 (hGal-1)): 5.73

CO[C@@H]1[C@@H](n2cc(-c3cc(F)c(F)c(F)c3)nn2)[C@@H](O)[C@@H](CO)O[C@@H]1Cc1cc(C2CCNC(=O)CC2)no1 (some centres unmarked) [Ex 1.337]
pIC50 (human Gal-3 (hGal-3)): 7.26 | pIC50 (human Gal-1 (hGal-1)): 6.38

CO[C@@H]1[C@@H](n2cc(-c3cc(F)c(F)c(F)c3)nn2)[C@@H](O)[C@@H](CO)O[C@@H]1Cc1cc(C2(CC#N)CC2)no1 [Ex 1.313]
pIC50 (human Gal-3 (hGal-3)): 6.89 | pIC50 (human Gal-1 (hGal-1)): 5.53

COc1ccc(C2=NOC(C[C@H]3O[C@H](CO)[C@H](O)[C@H](n4cc(-c5cc(F)c(F)c(F)c5)nn4)[C@H]3OC)C2)cc1 (some centres unmarked) [Ex 1.294]
pIC50 (human Gal-3 (hGal-3)): 5.81 | pIC50 (human Gal-1 (hGal-1)): 4.85

COc1ccc(-c2cn([C@H]3[C@@H](O)[C@@H](CO)O[C@H](CC4CC(C5CCN(C(=O)OC(C)(C)C)CC5)=NO4)[C@@H]3O)nn2)cc1 (some centres unmarked) [Ex 1.113]
pIC50 (human Gal-3 (hGal-3)): 5.97 | pIC50 (human Gal-1 (hGal-1)): 6.19

CCOC(C)(C)c1cc(C[C@H]2O[C@H](CO)[C@H](O)[C@H](n3cc(-c4cc(F)c(F)c(F)c4)nn3)[C@H]2OC)on1 [Ex 1.309]
pIC50 (human Gal-3 (hGal-3)): 6.16 | pIC50 (human Gal-1 (hGal-1)): 5.56

COc1ccc(C2=NOC(C[C@H]3O[C@H](CO)[C@H](O)[C@H](n4cc(-c5cc(F)c(F)c(F)c5)nn4)[C@H]3O)C2)c(Cl)c1 (some centres unmarked) [Ex 1.13]
pIC50 (human Gal-3 (hGal-3)): 5.95 | pIC50 (human Gal-1 (hGal-1)): 5.20

CO[C@@H]1[C@@H](n2cc(-c3cc(F)c(F)c(F)c3)nn2)[C@@H](O)[C@@H](CO)O[C@@H]1C[C@@H]1CC(C2CCNCC2)=NO1 [Example 3.06, (2R,3R,4S,5R,6R)-2-(hydroxymethyl)-5-methoxy-6-(((S)-3-(piperidin-4-yl)-4,5-dihydroisoxazol-5-yl)methyl)-4-(4-(3,4,5-trifluorophenyl)-1H-1,2,3-triazol-1-yl)tetrahydro-2H-pyran-3-ol]
pIC50 (human Gal-3 (hGal-3)): 6.55 | pIC50 (human Gal-1 (hGal-1)): 5.68

CO[C@@H]1[C@@H](n2cc(-c3cc(F)c(F)c(F)c3)nn2)[C@@H](O)[C@@H](CO)O[C@@H]1Cc1cc(C(C)(C)NC(=O)OC(C)(C)C)no1 [Ex 1.216]
pIC50 (human Gal-3 (hGal-3)): 6.47 | pIC50 (human Gal-1 (hGal-1)): 5.40

CO[C@@H]1[C@@H](n2cc(-c3ccc(F)c(F)c3F)nn2)[C@@H](O)[C@@H](CO)O[C@@H]1Cc1cc(C2CCOCC2)on1 [Ex 1.184]
pIC50 (human Gal-3 (hGal-3)): 6.89 | pIC50 (human Gal-1 (hGal-1)): 5.93

O=c1[nH]c2ccc(C3=NO[C@@H](C[C@H]4O[C@H](CO)[C@H](O)[C@H](n5cc(-c6cc(F)c(F)c(F)c6)nn5)[C@H]4O)C3)cc2o1 [Ex 1.31]
pIC50 (human Gal-3 (hGal-3)): 5.95 | pIC50 (human Gal-1 (hGal-1)): 4.87

O=C1CCC(c2cc(C[C@H]3O[C@H](CO)[C@H](O)[C@H](n4cc(-c5cc(F)c(F)c(F)c5)nn4)[C@H]3O)no2)CC1 [Example 2.12, 4-(3-(((2R,3R,4R,5R,6R)-3,5-dihydroxy-6-(hydroxymethyl)-4-(4-(3,4,5-trifluorophenyl)-1H-1,2,3-triazol-1-yl)tetrahydro-2H-pyran-2-yl)methyl)isoxazol-5-yl)cyclohexan-1-one]
pIC50 (human Gal-3 (hGal-3)): 6.72 | pIC50 (human Gal-1 (hGal-1)): 5.44

CO[C@@H]1[C@@H](n2cc(-c3ccc(Br)c(F)c3F)nn2)[C@@H](O)[C@@H](CO)O[C@@H]1CC1CC(C2CCN(C(=O)OC(C)(C)C)CC2)=NO1 (some centres unmarked) [Ex 1.141]
pIC50 (human Gal-3 (hGal-3)): 7.01 | pIC50 (human Gal-1 (hGal-1)): 6.10

CO[C@@H]1[C@@H](n2cc(-c3cc(F)c(F)c(F)c3)nn2)[C@@H](O)[C@@H](CO)O[C@@H]1CN1CC(C2CCN(C(=O)OC(C)(C)C)CC2)OC1=O (mixture of isomers) [Example 5.24, tert-butyl 4-((RS)-3-(((2R,3R,4S,5R,6R)-5-hydroxy-6-(hydroxymethyl)-3-methoxy-4-(4-(3,4,5-trifluorophenyl)-1H-1,2,3-triazol-1-yl)tetrahydro-2H-pyran-2-yl)methyl)-2-oxooxazolidin-5-yl)piperidine-1-carboxylate]
pIC50 (human Gal-3 (hGal-3)): 6.54 | pIC50 (human Gal-1 (hGal-1)): 5.74

CO[C@@H]1[C@@H](n2cc(-c3cc(F)c(F)c(F)c3)nn2)[C@@H](O)[C@@H](CO)O[C@@H]1Cc1cc(C2CCNC(=O)C2)no1 (some centres unmarked) [Ex 1.92]
pIC50 (human Gal-3 (hGal-3)): 6.59 | pIC50 (human Gal-1 (hGal-1)): 5.31

CC(C)(C)OC(=O)N1CCC(c2cc(C[C@H]3O[C@H](CO)[C@H](O)[C@H](n4cc(-c5cc(F)c(F)c(F)c5)nn4)[C@H]3OCC(=O)O)no2)CC1 [Example 2.21, 2-(((2R,3R,4S,5R,6R)-2-((5-(1-(tert-butoxycarbonyl)piperidin-4-yl)isoxazol-3-yl)methyl)-5-hydroxy-6-(hydroxymethyl)-4-(4-(3,4,5-trifluorophenyl)-1H-1,2,3-triazol-1-yl)tetrahydro-2H-pyran-3-yl)oxy)acetic acid]
pIC50 (human Gal-3 (hGal-3)): 7.66 | pIC50 (human Gal-1 (hGal-1)): 6.16
